Read-outs that look alike come from different tables or passages of the source.
Tests used:
Test in all cases: in vitro antibacterial MIC, agar plate dilution
Type in all cases: cell-based
[1] = system: Acinetobacter calcoaceticus MOR 84-43; conditions: 35° C.
How it was run: (§1)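 MIC, mcg/ml: lowest concentration with no visible growth after 18 h incubation at 35° C. Mueller-Hinton agar dilution plates; ~10^4 CFU inoculum via Steers replicating device.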

[2] = system: Escherichia coli PRNT 311; conditions: 35° C.
How it was run: as §1

Escherichia coli NAR 311 = conditions: 35° C.
How it was run: as §1

[3] = system: Staphylococcus aureus CMC 83-128; conditions: 35° C.
How it was run: as §1

[4] = system: Enterobacter cloacae VGH 84-37; conditions: 35° C.
How it was run: as §1

[5] = system: Staphylococcus aureus Smith; conditions: 35° C.
How it was run: as §1

[6] = system: Escherichia coli CMC 84-11; conditions: 35° C.
How it was run: as §1

[7] = system: Staphylococcus Spp saprophiticus VGH 84-50; conditions: 18 hours, 35° C.
How it was run: as §1

[8] = system: Proteus rettgeri CMC 84-41; conditions: 35° C.
How it was run: as §1

[9] = system: Enterobacter cloacae K 84-10; conditions: 35° C.
How it was run: as §1

[10] = system: Escherichia coli CMC 84-16; conditions: 35° C.
How it was run: as §1

Klebsiella pneumoniae AD = conditions: 35° C.
How it was run: as §1

[11] = system: Morganella morganii VGH 84-11; conditions: 35° C.
How it was run: as §1

[12] = system: Staphylococcus epidermidis CMC 83-135; conditions: 35° C.
How it was run: as §1

[13] = system: Staphylococcus epidermidis IO 83-58; conditions: 35° C.
How it was run: as §1

[14] = system: Serratia marcescens K 84-18; conditions: 35° C.
How it was run: as §1

[15] = system: Staphylococcus aureus CMC 83-127; conditions: 35° C.
How it was run: as §1

[16] = system: Staphylococcus aureus VGH 84-46; conditions: 35° C.
How it was run: as §1

[17] = system: Morganella morganii CMC 84-37; conditions: 35° C.
How it was run: as §1

[18] = system: Staphylococcus aureus ATTC 29213; conditions: 35° C.
How it was run: as §1

[19] = system: Pseudomonas aeruginosa VGH 84-4; conditions: 35° C.
How it was run: as §1

[20] = system: Staphylococcus epidermidis VGH 84-40; conditions: 35° C.
How it was run: as §1

[21] = system: Serratia marcescens F 0-35; conditions: 35° C.
How it was run: as §1

[22] = system: Enterobacter aerogenes VGH 84-36; conditions: 35° C.
How it was run: as §1

[23] = system: Escherichia coli ATCC 25922; conditions: 35° C.
How it was run: as §1

[24] = system: Pseudomonas aeruginosa LL-1244; conditions: 35° C.
How it was run: as §1

[25] = system: Klebsiella pneumoniae MOR 84-4; conditions: 35° C.
How it was run: as §1

[26] = system: Staphylococcus aureus VGH 84-45; conditions: 35° C.
How it was run: as §1

[27] = system: Streptococcus faecalis ATTC 29212; conditions: 35° C.
How it was run: as §1

[28] = system: Streptococcus faecalis VGH 84-65; conditions: 35° C.
How it was run: as §1

Measured: MIC

CCn1cc(C(=O)O)c(=O)c2cc(F)c(N3CCNC(CF)C3)c(F)c21 (single isomer, unassigned; (+)) [Example 65, (+)-N-Ethyl-6,8-difluoro-7-[3-(fluoromethyl)-1-piperazinyl]-1,4-dihydro-4-oxo-3-quinolinecarboxylic acid]
0.25 µg/mL: [3]; 18 hours | [5]; 18 hours | [8]; 18 hours | [12]; 18 hours | [13]; 18 hours | [14]; 18 hours | [16]; 18 hours | [18]; 18 hours | [20]; 18 hours | [21]; 18 hours
0.06 µg/mL: [2]; 18 hours | [6]; 18 hours | [9]; 18 hours | [10]; 18 hours | [23]; 18 hours
0.5 µg/mL: [1]; 18 hours
0.12 µg/mL: [4]; 18 hours | Klebsiella pneumoniae AD; 18 hours | [11]; 18 hours | [15]; 18 hours | [17]; 18 hours | [22]; 18 hours | [25]; 18 hours | [26]; 18 hours
4 µg/mL: [27]; 18 hours | [28]; 18 hours
1 µg/mL: Escherichia coli NAR 311; 18 hours | [7] | [19]; 18 hours
8 µg/mL: [24]; 18 hours

CCn1cc(C(=O)O)c(=O)c2cc(F)c(N3CCNC(CF)C3)c(F)c21 (racemic) [Example 63, (racemic)-N-Ethyl-6,8-difluoro-7-[3-(fluoromethyl)-1-piperazinyl]-1,4-dihydro-4-oxo-3-quinolinecarboxylic acid]
0.06 µg/mL: [6]; Escherichia coli, CMC8411, 18 h, read-out: MIC | [7]; read-out: MIC | [10]; Escherichia coli, CMC8416, 18 h, read-out: MIC | [14]; Serratia marcescens, K8418, 18 h, read-out: MIC | [23]; Escherichia coli, ATCC25922, 18 h, read-out: MIC
0.12 µg/mL: [2]; PRNT311, 18 hours, read-out: MIC | [9]; Enterobacter cloacae, K8410, 18 h, read-out: MIC | Klebsiella pneumoniae AD; Klebsiella pneumoniae, 18 h, read-out: MIC | [15]; Staphylococcus aureus, CMC83127, 18 h, read-out: MIC | [17]; Morganella morganii, CMC8437, 18 h, read-out: MIC | [25]; Klebsiella pneumoniae, MOR844, 18 h, read-out: MIC
0.5 µg/mL: [1]; MOR8443, 18 hours, read-out: MIC | [4]; Enterobacter cloacae, VGH8437, 18 h, read-out: MIC | [8]; Providencia rettgeri, CMC8441, 18 h, read-out: MIC | [11]; VGH8411, 18 hours, read-out: MIC | [12]; CMC83135, 18 hours, read-out: MIC | [21]; Serratia marcescens, F035, 18 h, read-out: MIC
8 µg/mL: [24]; Pseudomonas aeruginosa, LL1244, 18 h, read-out: MIC
0.03 µg/mL: [3]; CMC83128, 18 hours, read-out: MIC
0.25 µg/mL: [5]; Staphylococcus aureus, 18 h, read-out: MIC | [13]; IO8358, 18 hours, read-out: MIC | [16]; Staphylococcus aureus, VGH8446, 18 h, read-out: MIC | [18]; Staphylococcus aureus, ATTC29213, 18 h, read-out: MIC | [20]; VGH8440, 18 hours, read-out: MIC | [22]; Klebsiella aerogenes, VGH8436, 18 hours, read-out: MIC | [26]; Staphylococcus aureus, VGH8445, 18 h, read-out: MIC
4 µg/mL: [27]; Enterococcus faecalis, ATTC29212, 18 hours, read-out: MIC | [28]; Enterococcus faecalis, VGH8465, 18 h, read-out: MIC
1 µg/mL: Escherichia coli NAR 311; NAR311, 18 hours, read-out: MIC
2 µg/mL: [19]; Pseudomonas aeruginosa, VGH844, 18 h, read-out: MIC
